Tests used:
Assay type in all cases: cell-based, human
AR = experiment: Western blot of AR in LNCaP lysate proteins; conditions: for AR in lysates, Average (n=3): Fig 6d upper panel
Description: (§1) All performed as reported. The mouse monoclonal anti-AR (441; Santa Cruz) antibody was used in Co-Ip or WB approaches. TRPM8 was detected using the rabbit polyclonal anti-TRPM8 (NBP1-97311; Novus Biological). […] The rabbit polyclonal anti-ERK (C-14; Santa Cruz), antibody was used to detect total ERK. FAK and P-Tyr397 FAK were detected using the mouse monoclonal anti-FAK (Clone 77/610077 BD Transduction Laboratories) or anti P-Tyr397 FAK (Clone 14/611722; BD Transduction Laboratories) antibodies, respectively. P-Tyr118 paxillin and total paxillin were detected using the rabbit polyclonal anti-P-Y118 (#2541, Cell Signaling) or the mouse monoclonal anti-paxillin (clone 349; BD Biosciences) antibodies, respectively. […] P-Tyr 416 Src and Src were detected using the rabbit monoclonal anti P-Tyr 416 Src (#6943; Cell Signaling) or the mouse monoclonal anti Src (Calbiochem) antibodies, respectively. ERα and ERβ were detected using the rabbit polyclonal anti-ERα (543; Santa Cruz) or anti-ERβ (Upstate Biotechnology, U.S.A.) antibodies. Cyclin D1, p27 and Cdk4 were stained using the mouse monoclonal anti-cyclin D1 (clone AM29; from Zymed Laboratories Inc.), the rabbit polyclonal anti-p27 (C-19; Santa Cruz) or anti Cdk-4 (c-22; Santa Cruz) antibodies, respectively. The mouse monoclonal anti-tubulin (Sigma-Aldrich) antibody was used to detect tubulin. The ECL system (GE Healthcare) was employed to reveal immune-reactive proteins. Densitometric analysis of WB was performed by using Image J Software (https://imagej.nih.gov/ij).

LNCaP cells [1] = experiment: Transmigration assay in Boyden chamber, LNCaP cells; conditions: for androgen-induced cell migration: 10 nM R1881, compound 1 μM; for migration when added alone: compound 1 μM, no hormone
Description: In wound scratch analysis, 1.8 × 10^5 cells were seeded in a 24-well plate and made quiescent. Cells were then wounded using 10 µl sterile pipette tips and washed with PBS. They were left un-stimulated or stimulated for the indicated times, in the absence or presence of the selected compounds. To avoid cell proliferation, cytosine arabinoside (Sigma-Aldrich) at 50 μM (final concentration) was included in the cell medium. Different fields were analysed by contrast-phase microscopy, as below described in this section. Migration and invasion assays were done as reported. In migration assay, we used 3 × 10^4 cells in collagen pre-coated Boyden’s chambers with 8 μm polycarbonate membrane (Falcon). The indicated stimuli were added to the upper and the lower chambers. Cytosine arabinoside (at 50 μM) was included in the cell medium. After 7 h, non-migrating cells from the membrane upper surface were removed using a sterile cotton swab. In invasion assay, we used 5 × 10^4 cells in Boyden’s chambers with 8 μm polycarbonate membrane (Falcon) pre-coated with growth factor reduced- and phenol red-free Matrigel (Corning). The indicated stimuli were added to the upper and the lower chambers. Cytosine arabinoside (at 50 μM) was included in the cell medium. After 24 h, non-invading cells from the membrane upper surface were removed using a sterile cotton swab. In migration and invasion assays, the membranes were fixed for 20 min in 4% paraformaldehyde, stained with Hoechst (Sigma-Aldrich), removed with forceps from the companion plate and mounted. Migrating and invading cells were scored by fluorescence microscopy, as below described in this section.
(§2) In wound scratch assay, different fields were analysed using DMIRB inverted microscope (Leica) equipped with N-Plan 10 × objective (Leica), as reported. LNCaP organoids were analysed using the same microscope equipped with C-Plan 40 × or HCX PL Fluotar 63 × objectives (Leica). Images were captured using a DFC 450C camera (Leica) and acquired using the Application Suite Software (Leica). They are representative of three different experiments. The relative organoid size was calculated using the same software and expressed as a fold increase over the basal organoid size (measured at 3th day). The wound gap was calculated using Image J Software and expressed as % of the decrease in the wound area. Migrating or invading cells from at least 30 fields/each membrane were scored, using a DMLB (Leica) fluorescent microscope, equipped with HCPL Fluotar 20 × objective.

LNCaP cell spheroids = experiment: 3D culture in ECM, LNCaP cell spheroid size; conditions: for androgen-induced increase of spheroid size / spheroid size in the absence of hormone: 15 days; for spheroid size in the absence of hormone: compound 1 μM alone
Description: LNCaP cell spheroids were generated as reported. Briefly, 2 × 10^4 LNCaP cells were mixed with 200 μL of phenol-red free growth factor-reduced Matrigel and 50 μL of organoid plating medium in each well. The mixture was pipetted in 24-well plate and allowed to solidify for 45 min at 37 °C, before the addition of 400 μL organoid plating-medium, which was made using phenol red-free DMEM/F12 medium, containing 7% CSS, penicillin (100 U/mL), streptomycin (100 U/mL), diluted GlutaMAX 100X (Gibco), 10 mM Hepes, B27 supplement (50 × stock solution; Thermofisher, Waltham, Massachusetts, USA), […] nicotinamide (Sigma-Aldrich), […] N-acetylcysteine (Sigma-Aldrich) and 10 μM Y-27632 (Millipore, Burlington, MA, USA). After 3 days, the organoid-plating medium was replaced with a similar medium in the absence of N-acetylcysteine and Y-27632. At the 3rd day, spheroids/organoids were untreated or treated with the indicated compounds. The medium was changed every 3 days and fields were analyzed by phase-contrast microscopy.
as §2

TRPM8 = experiment: Western blot of TRPM8 in LNCaP lysate proteins; conditions: for TRPM8 in lysates, Average (n=3): Fig 6d upper panel
Description: as §1

LNCaP cells [2] = experiment: Fluorescent Ca2+ imaging (Fluo 4-AM) in LNCaP cells; conditions: for androgen-induced increase of intracellular Ca2+ levels: 10 nM R1881, 240 s, compound 1 μM
Description: LNCaP cells in 6 multi-wells were made quiescent and incubated for 60 min at 37 °C with 1 µM 4-Fluo AM (Abcam, ab241082). Cells were washed twice with Hank’s Balanced salt solution (HBSS) to remove any dye non-specifically associated with the cell surface. They were incubated with medium for 30 min to allow complete de-esterification of intracellular AM esters, and then left untreated or treated for 240 s with 10 nM R1881, in the absence or presence of the indicated compounds. Different fields were analyzed using DMIRB Leica (Leica) microscope equipped with C-Plan × 40 or HCX PL Fluotar × 63 objectives (Leica). IF microscopy images were generated using a DFC 450C camera (Leica).

LNCaP cells [3] = experiment: DNA synthesis (BrdU incorporation) in LNCaP cells; conditions: for effect on DNA synthesis stimulated by R1881: 1 nM R1881, compound 1 μM; for inhibitory effect on R1881-stimulated DNA synthesis, compared with 3 and 5: 10 nM R1881, compound 1 μM
Description: […] Cells were fixed, permeabilized, washed and the BrdU incorporation was analysed as reported. Nuclei were stained with Hoechst and cells on coverslips were scored by IF microscopy, using a DMLB Leica (Leica) fluorescent microscope, equipped with HCX PL Apo 63 × oil objective. Different fields from each coverslip were analyzed and BrdU incorporation was calculated by the formula: percentage of BrdU-positive cells = (No. of BrdU-positive cells/No. of total cells) × 100. Data in the graphs derive from at least 1000 scored cells for each coverslip. Representative images were captured using DC480 camera (Leica) and acquired using Leica Suite software. They are representative of three different experiments.

Compound | AR in lysates, Average (n=3) (AR; 10 nM R1881 + compound 1 μM) | AR in lysates, Average (n=3) (AR; compound 1 μM alone) | androgen-induced cell migration (LNCaP cells [1]) | migration when added alone (LNCaP cells [1]) | androgen-induced increase of spheroid size (LNCaP cell spheroids; 1 nM R1881, compound 1 µM) | androgen-induced increase of spheroid size (LNCaP cell spheroids; 10 nM R1881, compound 1 μM) | spheroid size in the absence of hormone (LNCaP cell spheroids) | TRPM8 in lysates, Average (n=3) (TRPM8; 10 nM R1881 + compound 1 μM) | TRPM8 in lysates, Average (n=3) (TRPM8; compound 1 μM alone) | androgen-induced increase of intracellular Ca2+ levels (LNCaP cells [2]) | effect on DNA synthesis stimulated by R1881 (LNCaP cells [3]) | inhibitory effect on R1881-stimulated DNA synthesis, compared with 3 and 5 (LNCaP cells [3]) | further results
c1ccc(COc2ccc3[nH]cc(CCNCc4ccc(Oc5ccccc5)cc4)c3c2)cc1 [Compound 4] | 0,9 | 0,9 | inhibited | leaving unaffected | reverted | abolished | leaving unaffected | 1 | 1 | reduced the androgen effect | reverted | stronger | –
COC(=O)[C@H](Cc1c[nH]c2ccccc12)N(Cc1ccccc1)Cc1ccccc1 [Compound 6] | 1,1 | 0,9 | inhibited | leaving unaffected | reverted | abolished | leaving unaffected | 1 | 1,1 | reduced the androgen effect | reverted | stronger | –
C[C@]1(O)CC[C@H]2[C@@H]3CCC4=CC(=O)CCC4=C3C=C[C@@]21C [Compound R1881, reference compound] | – | – | – | – | – | – | – | – | – | – | – | – | AR, Average (n=3) (AR; Fig 6e, first group of list (section not labelled, probably lysates), R1881 alone): 1; AR in lysates, Average (n=3) (AR; 10 nM R1881 alone, 10 min): 1; increase in number of migrating cells (LNCaP cells [1]; 10 nM R1881 alone): ~3 folds; response on spheroid size (LNCaP cell spheroids; 1 nM R1881 alone): only a weak response; amount of TRPM8 (Western blot) (TRPM8; 10 nM R1881, 24 h, quiescent LNCaP cells): very weakly increased; TRPM8, Average (n=3) (TRPM8; Fig 6e, R1881 alone): 1; TRPM8 in lysates, Average (n=3) (TRPM8; 10 nM R1881 alone, 10 min): 0,9; intracellular Ca2+ levels (LNCaP cells [2]; 10 nM R1881 alone, within 240 s): increased; increase of the DNA synthesis (LNCaP cells [3]; 1 nM R1881 alone): ~2 folds; increase in BrdU incorporation (LNCaP cells [3]; 10 nM R1881 alone): ~3,5 folds

— PMC8636514, “Therapeutic potential of TRPM8 antagonists in prostate cancer” (Scientific Reports, 2021)
